Like-named read-outs stand apart in the source and are kept apart here.
Experiments:
ovine COX-1 = target: T1, ovine COX-1 (Ovis aries, UniProt P05979); experiment: IC50 determinations using purified enzymes (TLC assay), COX-1; format: biochemical; details: assayed against purified enzymes
T1 construct: can be purified from ovine seminal vesicles by standard procedures; from tissue; host or cells: ovine seminal vesicles
T1 sequence (P05979 25-600): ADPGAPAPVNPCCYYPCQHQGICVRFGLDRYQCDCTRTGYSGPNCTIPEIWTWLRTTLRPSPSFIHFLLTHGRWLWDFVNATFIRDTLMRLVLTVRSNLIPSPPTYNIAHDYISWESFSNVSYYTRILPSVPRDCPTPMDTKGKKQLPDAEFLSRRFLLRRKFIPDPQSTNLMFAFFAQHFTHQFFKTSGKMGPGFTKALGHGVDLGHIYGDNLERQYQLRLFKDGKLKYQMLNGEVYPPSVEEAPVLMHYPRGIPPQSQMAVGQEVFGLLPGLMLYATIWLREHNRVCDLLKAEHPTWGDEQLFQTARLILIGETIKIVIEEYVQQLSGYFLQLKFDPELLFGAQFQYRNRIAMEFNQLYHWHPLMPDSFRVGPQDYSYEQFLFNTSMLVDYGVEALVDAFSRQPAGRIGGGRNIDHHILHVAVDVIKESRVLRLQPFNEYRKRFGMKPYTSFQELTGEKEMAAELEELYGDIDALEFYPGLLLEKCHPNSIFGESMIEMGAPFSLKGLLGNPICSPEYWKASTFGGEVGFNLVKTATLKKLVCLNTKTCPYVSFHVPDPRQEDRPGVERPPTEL
Text: (§1) Those skilled in the art will appreciate that an evaluation of the selectivity and efficacy of binding of the NSAID derivative to the COX-2 enzyme, e.g., after the derivative is synthesized, can be desirable. […] One example of an in vitro screening method takes advantage of the fact that both human and murine recombinant COX-2 can be expressed and isolated in pure form from an Sf9 cell expression system. […] Alternatively, membrane preparations from outdated human platelets can provide a source of human COX-1. […] The reaction is stopped by the addition of ethanol/methanol/1 M citrate, pH 4.0 (30:4:1). The extracted products are separated by thin layer chromatography (TLC), which allows quantitation of total product formation as well as assessment of product distribution. This assay is useful to define IC50 values for inhibition of either enzyme, and to determine time-dependency of inhibition. It also provides information concerning changes in products formed as a result of inhibition.
(§2) Reactions were terminated by solvent extraction in Et2O/CH3OH/1 M citrate, pH 4.0 (30:4:1). The phases were separated by centrifugation at 2000 g for 5 minutes and the organic phase was spotted on a 20×20 cm TLC plate (Lieselgel 60, EMD Chemicals, Inc., Gibbstown, N.J., United States of America). The plate was developed in EtOAc/CH2Cl2/glacial AcOH (75:25:1) at 4° C. Radiolabeled prostanoid products were quantitatively determined with a radioactivity scanner available from Bioscan, Inc. (Washington, D.C., United States of America). The percentage of total products observed at different concentrations of the presently disclosed compositions was divided by the percentage of products observed for protein samples preincubated for the same amount of time with DMSO.

COX-1 = target: T2, COX-1 (Mus musculus, UniProt P22437); experiment: Macrophage assay (RAW264.7), COX-1; format: cell-based, murine; details: Table 3; macrophage assay
T2 sequence (P22437 1-602): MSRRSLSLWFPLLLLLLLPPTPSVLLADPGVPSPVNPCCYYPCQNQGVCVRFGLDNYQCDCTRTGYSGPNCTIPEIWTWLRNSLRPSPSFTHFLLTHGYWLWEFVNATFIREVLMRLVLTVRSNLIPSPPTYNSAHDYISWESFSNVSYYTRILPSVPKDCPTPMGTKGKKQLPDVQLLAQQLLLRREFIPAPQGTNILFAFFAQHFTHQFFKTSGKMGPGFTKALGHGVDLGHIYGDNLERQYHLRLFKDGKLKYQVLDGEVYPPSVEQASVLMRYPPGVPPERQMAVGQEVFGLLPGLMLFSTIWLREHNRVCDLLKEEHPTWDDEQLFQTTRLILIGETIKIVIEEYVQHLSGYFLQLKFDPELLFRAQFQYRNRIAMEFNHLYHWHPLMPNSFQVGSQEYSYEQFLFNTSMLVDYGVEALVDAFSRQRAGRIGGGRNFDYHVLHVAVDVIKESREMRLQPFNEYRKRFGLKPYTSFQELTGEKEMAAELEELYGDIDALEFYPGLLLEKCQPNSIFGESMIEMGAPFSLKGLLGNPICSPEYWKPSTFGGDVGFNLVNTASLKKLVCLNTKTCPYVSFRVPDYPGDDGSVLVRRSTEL
Text: Thus, NSAID derivatives that are identified as potentially useful in the methods described herein can be further tested using, for example, the RAW264.7 murine macrophage cell line. These cells are readily available (for example, from the American Type Culture Collection (ATCC), Manassas, Va., United States of America) and are easily cultured in large numbers. They normally express low levels of COX-1 and very low to undetectable levels of COX-2. Upon exposure to bacterial lipopolysaccharide (LPS), however, COX-2 levels increase dramatically over the ensuing 24 hour period, and the cells produce PGD2 and PGE2 from endogenous arachidonic acid stores (generally, ˜1 nmol/10^7 cells total PG formation). After LPS exposure, the addition of exogenous arachidonic acid results in the formation of additional PGD2 and PGE2 as a result of metabolism by the newly synthesized COX-2.
This system provides a number of approaches for testing the inhibitory potency of COX-2-selective ligands (e.g., inhibitors). In general, following LPS activation, cells can be treated for 30 minutes with the desired concentrations of candidate derivative(s) in DMSO. ^14C-arachidonic acid can be added, and the cells can be incubated for 15 minutes at 37° C. Product formation can be assessed following extraction and TLC separation of the culture medium. Alternatively, the effects of candidate derivatives on PG synthesis from endogenous arachidonic acid can be assessed by incubating cells with desired concentrations of candidate derivatives 30 minutes prior to LPS exposure. Following a 24-hour incubation, medium can be collected and extracted, and the amount of PGD2 and/or PGE2 can be assayed by gas chromatography-mass spectrometry, liquid chromatography-mass spectrometry, or ELISA.

Fluorescence in buffer = format: physicochemical; details: for Fluor. λem: emission; for Fluor. λex: excitation
COX-2 = target: T3, COX-2 (Homo sapiens, UniProt P35354); experiment: IC50 determinations using purified enzymes (TLC assay), COX-2; format: biochemical; set-up: made in house; host or cells: Sf9 insect cells; details: assayed against purified enzymes, read-out: IC50 COX-2
T3 sequence (P35354 18-604): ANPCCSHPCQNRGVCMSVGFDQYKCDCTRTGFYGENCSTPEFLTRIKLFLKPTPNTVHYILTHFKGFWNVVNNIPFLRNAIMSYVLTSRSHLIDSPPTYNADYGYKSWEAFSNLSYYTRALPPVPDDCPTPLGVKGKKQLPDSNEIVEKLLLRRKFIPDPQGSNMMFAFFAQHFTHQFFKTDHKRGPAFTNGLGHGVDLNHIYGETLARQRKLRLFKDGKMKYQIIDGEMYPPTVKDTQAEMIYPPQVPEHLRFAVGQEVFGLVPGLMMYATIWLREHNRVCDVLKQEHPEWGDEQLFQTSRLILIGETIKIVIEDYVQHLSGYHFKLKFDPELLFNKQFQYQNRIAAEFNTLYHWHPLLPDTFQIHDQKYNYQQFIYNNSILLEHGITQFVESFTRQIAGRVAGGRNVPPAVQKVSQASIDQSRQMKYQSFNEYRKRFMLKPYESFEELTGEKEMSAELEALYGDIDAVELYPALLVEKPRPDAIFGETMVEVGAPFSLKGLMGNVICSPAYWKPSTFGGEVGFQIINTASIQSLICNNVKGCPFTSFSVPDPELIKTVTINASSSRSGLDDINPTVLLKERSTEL
Text: as §1, §2

Row | IC50 (ovine COX-1; Table 3) [µM] | IC50 (COX-1) [µM] | Fluor. λem (Fluorescence in buffer) [nm] | Fluor. λex (Fluorescence in buffer) [nm] | IC50 (COX-2; Table 3) [µM] | IC50 (ovine COX-1; Table 2) [µM] | IC50 (COX-2; Table 2) [µM] | SMILES
1 | > 25 | > 25 | 405 | 340 | 0.789 |  |  | COc1ccc2c(c1)c(CC(=O)NCCNC(=O)c1cc3ccccc3oc1=O)c(C)n2C(=O)c1ccc(Cl)cc1 [Compound 27cc, N-{2-(Coumarin-3-carboxylamido)ethyl}-2-{1-(4-chlorobenzoyl)-5-methoxy-2-methyl-1H-indol-3-yl}acetamide]
2 | > 25 | > 5 |  | 571 | 0.16 |  |  | CCN(CC)c1ccc2c(-c3ccc(S(=O)(=O)NCCOCCOCCOCCOCCC(=O)NCCCCNC(=O)Cc4c(C)n(C(=O)c5ccc(Cl)cc5)c5ccc(OC)cc45)cc3S(=O)(=O)[O-])c3ccc(=[N+](CC)CC)cc-3oc2c1 [Compound 27iii, 5-(N-(23-(1-(4-chlorobenoyl)-5-methoxy-2-methyl-1H-indol-3-yl)-15,22-dioxo-3,6,9,12-tetraoxa-16,21-diazatricosyl)sulfamoyl)-2-(6-(diethylamino)-3-(diethyliminio)-3H-xanthen-9-yl)benzenesulfonate]
3 | > 25 | > 1 | 497 | 343 | 0.075 |  |  | COc1ccc2c(c1)c(CC(=O)NCCCNS(=O)(=O)c1cccc3c(N(C)C)cccc13)c(C)n2C(=O)c1ccc(Cl)cc1 [Compound 27y]
4 | > 25 | > 1 | 504 | 324 | 0.067 |  |  | COc1ccc2c(c1)c(CC(=O)NCCCCNS(=O)(=O)c1cccc3c(N(C)C)cccc13)c(C)n2C(=O)c1ccc(Cl)cc1 [Compound 27z]
5 | > 25 |  |  |  | > 25 |  |  | COc1ccc2c(c1)c(CC(=O)NCCCCCNC(=O)c1ccc(C(=O)[O-])c(C3=c4cc5c6c(c4Oc4c3cc3c7c4CCCN7CCC3)CCC[N+]=6CCC5)c1)c(C)n2C(=O)c1ccc(Cl)cc1 [Compound 27zz]
6 | > 25 |  |  |  | > 25 |  |  | COc1ccc2c(c1)c(CCNC(=O)c1cc3ccccc3oc1=O)c(C)n2Cc1ccc(Br)cc1 [Compound 28b]
7 | > 25 |  |  |  | > 25 |  |  | COc1ccc2c(c1)c(CCNC(=O)Cc1ccc(Nc3ccc([N+](=O)[O-])c4nonc34)cc1)c(C)n2Cc1ccc(Br)cc1 [Compound 28c]
8 | > 25 |  |  |  | > 25 |  |  | COc1ccc2c(c1)c(CCNC(=O)c1ccc(C(=O)[O-])c(C3=c4cc5c6c(c4Oc4c3cc3c7c4CCCN7CCC3)CCC[N+]=6CCC5)c1)c(C)n2Cc1ccc(Br)cc1 [Compound 28e]
9 |  |  |  |  |  | > 25 | 2.8 | COC(=O)c1cc(-c2ccc(C)cc2)n(-c2ccc(S(C)(=O)=O)cc2)n1 [Compound 29b]
10 |  |  |  |  |  | > 25 | > 25 | COSc1ccc(-n2nc(C(=O)OC)cc2-c2ccc(C)cc2)cc1 [Compound 29c]
11 |  |  |  |  |  | > 25 | > 25 | Cc1ccc(-c2cc(C(=O)O)nn2-c2ccc(S(C)(=O)=O)cc2)cc1 [Compound 29d]
12 |  |  |  |  |  | > 25 | > 25 | Cc1ccc(-c2cc(CCC(=O)NCCN)nn2-c2ccc(S(C)(=O)=O)cc2)cc1 [Compound 29f]
13 | > 25 |  |  |  | > 25 |  |  | CC[N+](CC)=c1ccc2nc3c(cc(NC(=O)CCc4cc(-c5ccc(C)cc5)n(-c5ccc(S(C)(=O)=O)cc5)n4)c4ccccc43)oc-2c1 [Compound 29g]
14 | > 25 |  |  |  | > 25 |  |  | Cc1ccc(-c2cc(CCC(=O)NCCNC(=O)c3ccc(C(=O)[O-])c(C4=c5cc6c7c(c5Oc5c4cc4c8c5CCCN8CCC4)CCC[N+]=7CCC6)c3)nn2-c2ccc(S(C)(=O)=O)cc2)cc1 [Compound 29h]
15 |  |  |  |  |  | > 25 | > 25 | Cc1ccc(-c2cc(C(=O)O)nn2-c2ccc(S(N)(=O)=O)cc2)cc1 [Compound 30d]
16 | > 25 |  |  |  | > 25 |  |  | Cc1ccc(-c2cc(CCC(=O)NCCNC(=O)c3ccc(C(=O)[O-])c(C4=c5cc6c7c(c5Oc5c4cc4c8c5CCCN8CCC4)CCC[N+]=7CCC6)c3)nn2-c2ccc(S(N)(=O)=O)cc2)cc1 [Compound 30e]
17 |  | > 5 |  |  | ≥ 25 |  |  | CCN(CC)c1ccc2c(-c3ccc(S(=O)(=O)NCCOCCOCCOCCOCCC(=O)NCCNC(=O)CCc4cc(-c5ccc(C)cc5)n(-c5ccc(S(N)(=O)=O)cc5)n4)cc3S(=O)(=O)[O-])c3ccc(=[N+](CC)CC)cc-3oc2c1 [Compound 30f]
18 |  |  |  |  |  | > 25 | > 25 | COC(=O)c1cc(-c2ccc(C)cc2)n(-c2ccc(S(=O)(=O)N(C)C)cc2)n1 [Compound 31]
19 | > 25 |  |  |  | > 25 |  |  | Cc1ccc(C(=O)N2CCN(C(=O)c3ccc(C4=c5cc6c7c(c5Oc5c4cc4c8c5CCCN8CCC4)CCC[N+]=7CCC6)c(C(=O)[O-])c3)CC2)cc1 [Compound 32]

Reference: patent US7736624B2, “Methods and compositions for diagnostic and therapeutic targeting of COX-2” (priority 2006, dated 2010)
